Results on five substances are retold here after patent USRE48023E1, “Method for treating vascular-related disease” (EYEGENE INC., priority 2006, dated 2020).

For this assay, the system named is mouse retinal angiogenesis. Description: Mouse model for inducing retinal angiogenesis using oxygen partial pressure, FITC-dextran observation. To be noted: for blood leakage (FITC-dextran) / normal angiogenesis (FITC-dextran): administered intraperitoneally after 75% oxygen treatment; for abnormal angiogenesis: treated daily with 1 μg/kg. Format: in vivo.

“SEQ ID NO: 1: peptide comprising a RGD sequence; sequence not printed in text (RGDFV; Peptide Containing RGD Sequence)”: the “blood leakage (FITC-dextran)” value was “blood leakage is reduced”, the “normal angiogenesis (FITC-dextran)” value is reported as “normal angiogenesis is induced” and the abnormal angiogenesis entry is recorded as “abnormal angiogenesis was not observed”.

Consider “SEQ ID NO: 2: peptide comprising a RGD sequence; sequence not printed in text (GFGRGDSPCA; Peptide Containing RGD Sequence)”, for which the “blood leakage (FITC-dextran)” value is “blood leakage is reduced”, the “normal angiogenesis (FITC-dextran)” value is on record as “normal angiogenesis is induced” and the abnormal angiogenesis result was “abnormal angiogenesis was not observed”.

In the case of “SEQ ID NO: 3: polypeptide comprising a sequence RAD, used as the control (RADFV; Peptide Containing RAD Sequence) [reference compound]”, the “normal angiogenesis (FITC-dextran)” value was “normal angiogenesis is not induced”. For the same substance, the “normal angiogenesis (FITC-dextran)” value (listed as polypeptide comprising a RAD sequence) is “not also normally formed”.

Consider “echistatin (ECESGPCCRNCKFLKEGTICKRARGDDMDDYCNGLTCDCPRNPHKGPAT; Peptide containing RGD sequence)”, for which the “blood leakage (FITC-dextran)” value is reported as “blood leakage is reduced”, the “normal angiogenesis (FITC-dextran)” value is “normal angiogenesis is induced” and the abnormal angiogenesis result is reported as “abnormal angiogenesis was not observed”.

kistrin: the “blood leakage (FITC-dextran)” value is on record as “blood leakage is reduced”, the “normal angiogenesis (FITC-dextran)” value is reported as “normal angiogenesis is induced” and the abnormal angiogenesis entry is on record as “abnormal angiogenesis was not observed”.
